Laboratory results as given in publication PMC2994389 (2010).

Target: T1, PARP-1 (Homo sapiens, UniProt P09874)
T1 construct: gene PARP1
Assay: colorimetric PARP assay kit (Trevigen), biotinylated NAD incorporation
Assay type: biochemical

T1 sequence (P09874 2-1014): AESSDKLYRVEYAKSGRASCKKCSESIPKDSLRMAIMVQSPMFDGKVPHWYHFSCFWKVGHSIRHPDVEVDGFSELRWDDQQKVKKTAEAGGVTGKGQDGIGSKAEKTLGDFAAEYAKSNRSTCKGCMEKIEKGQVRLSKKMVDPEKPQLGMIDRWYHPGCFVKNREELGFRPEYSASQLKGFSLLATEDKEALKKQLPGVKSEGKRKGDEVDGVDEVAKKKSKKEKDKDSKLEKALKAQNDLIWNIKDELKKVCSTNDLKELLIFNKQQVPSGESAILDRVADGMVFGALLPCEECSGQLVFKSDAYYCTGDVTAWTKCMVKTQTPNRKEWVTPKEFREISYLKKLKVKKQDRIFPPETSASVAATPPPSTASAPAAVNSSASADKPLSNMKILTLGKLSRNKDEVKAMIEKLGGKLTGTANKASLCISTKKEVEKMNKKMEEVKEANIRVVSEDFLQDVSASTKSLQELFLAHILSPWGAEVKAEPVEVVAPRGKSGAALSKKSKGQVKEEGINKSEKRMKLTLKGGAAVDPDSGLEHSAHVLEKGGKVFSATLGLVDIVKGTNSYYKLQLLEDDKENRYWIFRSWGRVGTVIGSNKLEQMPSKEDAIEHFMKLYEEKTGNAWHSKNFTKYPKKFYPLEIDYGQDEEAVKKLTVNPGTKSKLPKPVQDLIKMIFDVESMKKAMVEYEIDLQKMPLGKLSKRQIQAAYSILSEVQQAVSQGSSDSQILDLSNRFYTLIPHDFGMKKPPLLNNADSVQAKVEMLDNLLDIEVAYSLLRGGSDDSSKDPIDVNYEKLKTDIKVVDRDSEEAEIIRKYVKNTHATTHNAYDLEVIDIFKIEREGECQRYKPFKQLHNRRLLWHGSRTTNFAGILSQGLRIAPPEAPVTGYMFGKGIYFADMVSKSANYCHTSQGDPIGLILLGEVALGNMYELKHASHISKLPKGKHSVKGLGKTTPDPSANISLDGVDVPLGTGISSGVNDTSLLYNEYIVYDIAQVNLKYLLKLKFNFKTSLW

With NCCS(=O)(=O)O [TAU, taurine] the IC50 was 320 µM.
